Patent US9061060B2, “Deuterated benzylbenzene derivatives and methods of use” (Theracos Inc., priority 2008, dated 2015)

Assays:
CYP2C19 = target: T1, CYP2C19 (Homo sapiens, UniProt P33261); experiment: P450-Glo CYP screening kit, CYP2C19 inhibition; format: in vitro ADME; details: luminescence, read-out: IC50 2C19
T1 construct: purchased Promega
From the text: (§1) P450-Glo™ CYP Screening Kits for CYP1A2, CYP3A4 and CYP2C19 were purchased from Promega. […] Luminescence was quantified using a Victor 3 spectrophotometer (PerkinElmer).

CYP3A4 = target: T2, CYP3A4 (Homo sapiens, UniProt P08684); experiment: P450-Glo CYP screening kit, CYP3A4 inhibition; format: in vitro ADME; details: luminescence, read-out: IC50 3A4
T2 construct: purchased Promega
From the text: as §1

beagle dogs = experiment: Urinary glucose excretion in beagle dogs; format: in vivo; details: 0.03 mg/kg oral, glucose 2 g/kg 1 h post dose; for Urinary Glucose Excretion in Dogs, 0-8 h (mean ± SD): 0-8 h (Table 4); for Urinary Glucose Excretion in Dogs, 0-24 h (mean ± SD): 0-24 h (Table 4); for Urinary Glucose Excretion in Dogs, 8-24 h (mean ± SD): 8-24 h (Table 4)
Experimental: Each test compound was dissolved in 10% PEG400 and administered orally to overnight-fasted beagle dogs by gavage at the dose level of 0.03 mg/kg. Control dogs were given 10% PEG400 only. One hour post dosing, glucose solution (2 g/kg, 5 mL/kg) was administered by oral gavage. Urine was collected within metabolic cages from 0 to 8 hours, and 8 to 24 hours post-dosing for urine volume and glucose measurement. Food was removed 16 hours before dosing and then provided 3 hours after dosing. Water was supplied ad libitum. The concentration of urinary glucose was determined at 8 hours and 24 hours post-dose using a biochemistry analyzer.

CYP1A2 = target: T3, CYP1A2 (Homo sapiens, UniProt P05177); experiment: P450-Glo CYP screening kit, CYP1A2 inhibition; format: in vitro ADME; details: luminescence, read-out: IC50 1A2
T3 construct: purchased Promega
T3 sequence (P05177 1-516): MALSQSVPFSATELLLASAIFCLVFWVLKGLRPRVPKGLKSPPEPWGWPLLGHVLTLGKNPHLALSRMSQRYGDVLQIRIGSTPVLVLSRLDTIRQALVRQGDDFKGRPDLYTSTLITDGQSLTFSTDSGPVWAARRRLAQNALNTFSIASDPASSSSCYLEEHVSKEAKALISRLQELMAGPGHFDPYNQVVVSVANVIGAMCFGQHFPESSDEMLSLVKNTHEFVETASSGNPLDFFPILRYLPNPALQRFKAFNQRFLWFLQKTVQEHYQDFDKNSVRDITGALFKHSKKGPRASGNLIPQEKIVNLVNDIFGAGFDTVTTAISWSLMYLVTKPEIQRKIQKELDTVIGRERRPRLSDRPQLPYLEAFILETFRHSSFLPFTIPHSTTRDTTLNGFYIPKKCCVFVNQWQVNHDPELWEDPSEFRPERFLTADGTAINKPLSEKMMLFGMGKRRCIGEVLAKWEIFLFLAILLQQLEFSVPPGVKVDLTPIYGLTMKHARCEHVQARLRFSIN
From the text: as §1

[1] = Pharmacokinetic parameters in SD rats; format: in vivo, Sprague-Dawley rats; details: single oral 3 mg/kg in 30% PEG400, plasma; for CL/F / AUC(0-t): Sprague-Dawley, rat; for AUC(0-t): read-out: AUC0-t (mean ± SD)
Experimental: The pharmacokinetic study of each test compound was conducted in 4 Sprague-Dawley rats following a single oral administration of 3 mg/kg of the compound. The dose was prepared by dissolving test article in appropriate volume of 30% PEG400. The plasma samples were collected from the orbital plexus at 0.083, 0.25, 0.50, 1.0, 2.0, 4.0, 6.0, 8.0, 12 and 24 hours post dose, and the plasma concentrations were determined by a developed LC-MS/MS method.

[2] = Metabolism in SD rats: distribution of metabolites in urine; format: in vivo; details: male SD rats, 50 mg/kg oral, five consecutive days, HPLC
Experimental: Each test compound was dissolved in 30% PEG400 and administered orally to male SD rats by gavages at the dose level of 50 mg/kg (when using co-crystals, the weight calculation was based on free drug) for five consecutive days. Control rats were given 30% PEG400 only. All rats were housed in metabolic cages individually. Food and water were supplied ad libitum. Clinical observations (with attention to diarrhea symptoms) were performed twice daily. Food and water consumption were determined daily. Urine was collected pre-determined intervals: pre-dose, 0-4 hours, 4-8 hours, and 8-24 hours post-dose. Metabolites were analyzed and identified by LC/MS. The structures of the metabolites were confirmed by re-synthesis or isolation from the urine by preparative HPLC and NMR analysis. On day 6, all animals were sacrificed and gross necropsy was performed. The urine from two rats for each test compound was collected and pooled. The samples were diluted (1 mL urine in 4 mL of methanol) and analyzed by LC-MS: Waters 2695 Separations Module equipped with a Waters 2996 Photodiode Array Detector and a Waters Micromass ZQ Detector; Waters XTerra C18 3.5 μm, 20 mm×2.1 mm column, 1.0 mL/min, detection at 190-400 nm; 1.7 min gradient 10-50% A, followed by 1.8 min gradient 50-95% A, hold 1 min at 95% A; solvent A: 100% acetonitrile+0.045% formic acid; solvent B: Milli-Q water+0.1% formic acid. The urine samples were analyzed from 0-4 hours, 4-8 hours, 8-24 hours and 0-24 hours after administration. The ratio of metabolites was highly consistent within each time for each rat. The metabolites were identified by mass then re-synthesized to confirm their identity and the relative distribution was assayed using HPLC. […] See also FIGS. 1, 2A-2C, 3A-3D, and 4A-4C.

SD rats = experiment: Urinary glucose excretion in SD rats; format: in vivo; details: 1 mg/kg oral
Experimental: Each test compound was dissolved in 30% PEG400 and administered orally to overnight-fasted SD rats by gavage at the dose level of 1 mg/kg. Control rats were given 30% PEG400 only. One hour post dosing, glucose solution (2 g/kg, 10 mL/kg) was administered by oral gavage. Urine was collected within metabolic cages from 0 to 4 hours, and 4 to 24 hours post-dosing for urine volume and glucose measurement. Food was removed 16 hours before dosing and then provided 4 hours after dosing. Water was supplied ad libitum. The concentration of urinary glucose was determined at 4 hours and 24 hours post-dose using a biochemistry analyzer. Results were recorded for the periods 0-4 hours, 4-24 hours and 0-24 hours, and expressed as a percentage of the urinary glucose excretion (UGE) seen with reference compound A, which was run as a positive control in all experiments.

[3] = glucose 2 g/kg 1 h post dose, 0-24 h
[4] = glucose 2 g/kg 1 h post dose, 4-24 h

T1 sequence (P33261 whole entry): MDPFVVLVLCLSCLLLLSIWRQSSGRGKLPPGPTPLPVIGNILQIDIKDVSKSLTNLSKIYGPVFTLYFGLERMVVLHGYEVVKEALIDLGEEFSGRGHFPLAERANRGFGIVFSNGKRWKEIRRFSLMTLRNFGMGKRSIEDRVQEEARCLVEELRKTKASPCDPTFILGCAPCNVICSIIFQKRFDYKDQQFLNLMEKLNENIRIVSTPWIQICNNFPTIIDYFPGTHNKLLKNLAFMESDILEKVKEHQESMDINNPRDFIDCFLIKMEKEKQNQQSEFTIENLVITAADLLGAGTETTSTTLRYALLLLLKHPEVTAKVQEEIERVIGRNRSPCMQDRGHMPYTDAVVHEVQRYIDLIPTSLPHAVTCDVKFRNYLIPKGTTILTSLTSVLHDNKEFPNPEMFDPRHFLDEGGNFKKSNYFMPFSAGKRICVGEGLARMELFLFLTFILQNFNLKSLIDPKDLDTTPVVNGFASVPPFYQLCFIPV
T2 sequence (P08684 whole entry): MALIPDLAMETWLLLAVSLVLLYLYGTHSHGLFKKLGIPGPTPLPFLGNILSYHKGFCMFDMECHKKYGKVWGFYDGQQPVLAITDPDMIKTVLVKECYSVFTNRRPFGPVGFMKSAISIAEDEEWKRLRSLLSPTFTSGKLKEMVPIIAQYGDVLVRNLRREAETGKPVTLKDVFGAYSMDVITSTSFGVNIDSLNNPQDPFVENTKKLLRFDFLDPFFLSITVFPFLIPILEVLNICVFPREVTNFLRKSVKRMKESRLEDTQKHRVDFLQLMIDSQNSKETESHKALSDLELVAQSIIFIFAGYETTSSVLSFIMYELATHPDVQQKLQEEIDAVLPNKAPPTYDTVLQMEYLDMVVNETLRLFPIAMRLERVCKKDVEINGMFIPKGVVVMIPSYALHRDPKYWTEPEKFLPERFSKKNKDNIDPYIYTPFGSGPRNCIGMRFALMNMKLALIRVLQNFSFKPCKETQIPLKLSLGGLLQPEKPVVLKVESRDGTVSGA

Compound: [2H]C([2H])([2H])C([2H])([2H])Oc1ccc(Cc2cc([C@@H]3O[C@H](CO)[C@@H](O)[C@H](O)[C@H]3O)ccc2Cl)cc1 [24c, (2S,3R,4R,5S,6R)-2-(4-chloro-3-(4-(ethoxy-d5)benzyl)phenyl)-6-(hydroxymethyl)tetrahydro-2H-pyran-3,4,5-triol]
- IC50 (CYP2C19): 168 µM
- IC50 (CYP3A4): 500 to 1000 µM
- Urinary Glucose Excretion in Dogs, 0-8 h (mean ± SD) (beagle dogs): 3472 ± 622 mg
- Urinary Glucose Excretion in Dogs, 0-24 h (mean ± SD) (beagle dogs): 11964 ± 2190 mg
- IC50 (CYP1A2): 500 to 1000 µM
- CL/F [1]: 2.22 mL/min/kg
- AUC(0-t) [1]: 21200 ± 1880 ng·h/mL
- Cmax (mean ± SD) [1]: 2285 ± 697 ng/mL
- t1/2 (mean ± SD) [1]: 6.05 ± 0.85 h
- tmax (mean ± SD) [1]: 1.38 ± 0.75 h
- Distribution of Metabolites in Urine (% of total), Peak 1 (Parent) [2]: 45%

Compound: [2H]C([2H])([2H])Oc1ccc(Cc2cc([C@@H]3O[C@H](CO)[C@@H](O)[C@H](O)[C@H]3O)ccc2Cl)cc1 [24d, (2S,3R,4R,5S,6R)-2-(4-chloro-3-(4-(methoxy-d3)benzyl)phenyl)-6-(hydroxymethyl)tetrahydro-2H-pyran-3,4,5-triol]
- IC50 (CYP2C19): 120 µM
- IC50 (CYP3A4): ~1000 µM
- IC50 (CYP1A2): > 1000 µM
- Urinary Glucose Excretion in Rats, 0-4 h, % relative to Ref A (SD rats; 0-4 h): 131%
- Urinary Glucose Excretion in Rats, 0-24 h, % relative to Ref A (SD rats; 0-24 h): 92%
- Urinary Glucose Excretion in Rats, 4-24 h, % relative to Ref A (SD rats; 4-24 h): 89%
- Urinary Glucose Excretion in Rats, 0-4 h (mean ± SD) (SD rats; glucose 2 g/kg 1 h post dose, 0-4 h): 251 ± 44 mg
- Urinary Glucose Excretion in Rats, 0-24 h (mean ± SD) (SD rats; [3]): 2234 ± 199 mg
- Urinary Glucose Excretion in Rats, 4-24 h (mean ± SD) (SD rats; [4]): 1983 ± 167 mg
- CL/F [1]: 7.18 mL/min/kg
- AUC(0-t) [1]: 6680 ± 350 ng·h/mL
- Cmax (mean ± SD) [1]: 1494 ± 428 ng/mL
- t1/2 (mean ± SD) [1]: 6.34 ± 2.79 h
- tmax (mean ± SD) [1]: 1.19 ± 0.94 h

Compound: CCOc1ccc(Cc2cc([C@@H]3O[C@H](CO)[C@@H](O)[C@H](O)[C@H]3O)ccc2Cl)cc1 [Ref A, (2S,3R,4R,5S,6R)-2-(4-chloro-3-(4-ethoxybenzyl)phenyl)-6-(hydroxymethyl)tetrahydro-2H-pyran-3,4,5-triol, reference compound]
- IC50 (CYP2C19): 61.1 µM
- IC50 (CYP3A4): ~400 µM
- IC50 (CYP1A2): 426 µM
- CL/F [1]: 4.5 mL/min/kg
- AUC(0-t) [1]: 11300 ± 2600 ng·h/mL
- Cmax (mean ± SD) [1]: 1603 ± 425 ng/mL
- t1/2 (mean ± SD) [1]: 4.52 ± 0.98 h
- tmax (mean ± SD) [1]: 0.88 ± 0.75 h
- Distribution of Metabolites in Urine (% of total), Peak 1 (Parent) [2]: 40%

Compound: [2H][C@@]1(c2ccc(Cl)c(Cc3ccc(OCC)cc3)c2)O[C@H](CO)[C@@H](O)[C@H](O)[C@H]1O [compound 5, (2S,3R,4R,5S,6R)-2-(4-chloro-3-(4-ethoxybenzyl)phenyl)-6-(hydroxymethyl)tetrahydro-2H-pyran-2-d-3,4,5-triol]
- IC50 (CYP2C19): 104 µM
- IC50 (CYP3A4): 500 to 1000 µM
- Urinary Glucose Excretion in Dogs, 0-8 h (mean ± SD) (beagle dogs): 3765 ± 808 mg
- Urinary Glucose Excretion in Dogs, 0-24 h (mean ± SD) (beagle dogs): 12676 ± 2150 mg
- Urinary Glucose Excretion in Dogs, 8-24 h (mean ± SD) (beagle dogs): 8910 ± 1700 mg
- IC50 (CYP1A2): 500 to 1000 µM
- Urinary Glucose Excretion in Rats, 0-24 h (mean ± SD) (SD rats; [3]): 2650 ± 385 mg
- Urinary Glucose Excretion in Rats, 4-24 h (mean ± SD) (SD rats; [4]): 2457 ± 369 mg

Compound: [2H]C([2H])(c1ccc(OCC)cc1)c1cc([C@@H]2O[C@H](CO)[C@@H](O)[C@H](O)[C@H]2O)ccc1Cl [compound 9, (2S,3R,4R,5S,6R)-2-(4-chloro-3-((4-ethoxyphenyl)methyl-d2)phenyl)-6-(hydroxymethyl)tetrahydro-2H-pyran-3,4,5-triol]
- IC50 (CYP2C19): 50 to 100 µM
- IC50 (CYP3A4): ~1000 µM
- Urinary Glucose Excretion in Dogs, 0-8 h (mean ± SD) (beagle dogs): 3396 ± 442 mg
- Urinary Glucose Excretion in Dogs, 0-24 h (mean ± SD) (beagle dogs): 10228 ± 895 mg
- Urinary Glucose Excretion in Dogs, 8-24 h (mean ± SD) (beagle dogs): 6832 ± 2555 mg
- IC50 (CYP1A2): ~500 µM
- CL/F [1]: 3.2 mL/min/kg
- AUC(0-t) [1]: 15300 ± 2380 ng·h/mL
- Cmax (mean ± SD) [1]: 1830 ± 365 ng/mL
- t1/2 (mean ± SD) [1]: 5.14 ± 1.28 h
- tmax (mean ± SD) [1]: 1.69 ± 0.59 h
- Distribution of Metabolites in Urine (% of total), Peak 1 (Parent) [2]: 55%
